Assay results as given in patent publication US8586357B2, “Markers of definitive endoderm” (ViaCyte, Inc., priority 2003, dated 2013).

Experiments:
[1] = system: definitive endoderm cells vs hESCs; experiment: Gene chip analysis (Affymetrix U133 Plus 2.0) of purified definitive endoderm compared to hESCs; type: cell-based, human
Procedure: In the following experiment, RNA was isolated from purified definitive endoderm and human embryonic stem cell populations. Gene expression was then analyzed by gene chip analysis of the RNA from each purified population. Q-PCR was also performed to further investigate the potential of genes expressed in definitive endoderm, but not in embryonic stem cells, as a marker for definitive endoderm. Human embryonic stem cells (hESCs) were maintained in DMEM/F12 media supplemented with 20% KnockOut Serum Replacement, 4 ng/mL recombinant human basic fibroblast growth factor (bFGF), 0.1 mM 2-mercaptoethanol, L-glutamine, non-essential amino acids and penicillin/streptomycin. hESCs were differentiated to definitive endoderm by culturing for 5 days in RPMI media supplemented with 100 ng/mL of recombinant human activin A, fetal bovine serum (FBS), and penicillin/streptomycin. The concentration of FBS was varied each day as follows: 0.1% (first day), 0.2% (second day), 2% (days 3-5). Cells were isolated by fluorescence activated cell sorting (FACS) in order to obtain purified populations of hESCs and definitive endoderm for gene expression analysis. […] Cells were dissociated using trypsin/EDTA (Invitrogen, cat#25300-054), washed in phosphate buffered saline (PBS) containing 2% human serum and resuspended in 100% human serum on ice for 10 minutes to block non-specific binding. Staining was carried out for 30 minutes on ice by adding 200 uL of phycoerythrin-conjugated antibody to 5×10^6 cells in 800 uL human serum. Cells were washed twice with 8 mL of PBS buffer and resuspended in 1 mL of the same. FACS isolation was carried out by the core facility of The Scripps Research Institute using a FACS Vantage (BD Biosciences). Cells were collected directly into RLT lysis buffer and RNA was isolated by RNeasy according to the manufacturers instructions (Qiagen). Purified RNA was submitted in duplicate to Expression Analysis (Durham, N.C.) for generation of the expression profile data using the Affymetrix platform and U133 Plus 2.0 high-density oligonucleotide arrays. Data presented is a group comparison that identifies genes differentially expressed between the two populations, hESCs and definitive endoderm. […] The “Gene_Symbol” column refers to the unique name given to the gene by the HUGO Gene Nomenclature Committee. The “Raw Fold Change” column refers to the fold difference in signal for each gene in definitive endoderm compared to hESCs. The “Unigene,” “LocusLink,” and “OMIM” columns refer to identifiers that are descriptive and functional annotations derived from current National Center for Biotechnology Information (NCBI) releases of the UniGene, LocusLink, OMIM, and HomoloGene publicly available databases. […]

[2] = system: human definitive endoderm cells; experiment: Differentiation factor screening: Q-PCR of albumin, PROX1 and TITF1; type: cell-based
Procedure: To exemplify the differentiation factor screening methods described herein, populations of human definitive endoderm cells produced using the methods described herein were separately provided with several candidate differentiation factors while determining the normalized expression levels of certain marker gene products at various time points.
Human definitive endoderm cells were produced as described in the foregoing Examples. In brief, hESCs cells were grown in the presence of 100 ng/ml activin A in low serum RPMI medium for four days, wherein the fetal bovine serum (FBS) concentration on day 1 was 0%, on day 2 was 0.2% and on days 3-4 was 2%. After formation of definitive endoderm, beginning on day 5 and ending on day 10, cell populations maintained in individual plates in RPMI containing 0.2% FBS were treated with one of: Wnt3A at 20 ng/ml, FGF2 at 5 ng/ml or FGF2 at 100 ng/ml. The expression of marker gene products for albumin, PROX1 and TITF1 were quantitated using Q-PCR.

[3] = system: definitive endoderm cells; experiment: Maintenance and expansion of definitive endoderm cells in culture in the presence of activin; type: cell-based, human
Text: Definitive endoderm cells produced by methods described herein have been maintained and expanded in culture in the presence of activin for greater than 50 days without appreciable differentiation. In such cases, SOX17, CXCR4, MIXL1, GATA4, HNF3β expression is maintained over the culture period. Additionally, TM, SPARC, OCT4, AFP, SOX7, ZIC1 and BRACH were not detected in these cultures. It is likely that such cells can be maintained and expanded in culture for substantially longer than 50 days without appreciable differentiation.

[4] = system: hESCs (hESCyt-25); experiment: Q-PCR gene expression assay of marker genes in differentiating hESCs; type: cell-based, human; settings: Wnt3a added to activin A and activin B treated cultures; FIG. 23
Procedure: In the following experiments, real-time quantitative RT-PCR (Q-PCR) was the primary assay used for screening the effects of various treatments on HESC differentiation. In particular, real-time measurements of gene expression were analyzed for multiple marker genes at multiple time points by Q-PCR. Marker genes characteristic of the desired as well as undesired cell types were evaluated to gain a better understanding of the overall dynamics of the cellular populations. The strength of Q-PCR analysis includes its extreme sensitivity and relative ease of developing the necessary markers, as the genome sequence is readily available. Furthermore, the extremely high sensitivity of Q-PCR permits detection of gene expression from a relatively small number of cells within a much larger population. In addition, the ability to detect very low levels of gene expression provides indications for “differentiation bias” within the population. The bias towards a particular differentiation pathway, prior to the overt differentiation of those cellular phenotypes, is unrecognizable using immunocytochemical techniques. […] Additionally, Q-PCR provides a mechanism by which to evaluate the success of a differentiation protocol in a quantitative format at semi-high throughput scales of analysis.
The approach taken here was to perform relative quantitation using SYBR Green chemistry on a Rotor Gene 3000 instrument (Corbett Research) and a two-step RT-PCR format. Such an approach allowed for the banking of cDNA samples for analysis of additional marker genes in the future, thus avoiding variability in the reverse transcription efficiency between samples.
Primers were designed to lie over exon-exon boundaries or span introns of at least 800 bp when possible, as this has been empirically determined to eliminate amplification from contaminating genomic DNA.
We routinely used Q-PCR to measure the gene expression of multiple markers of target and non-target cell types in order to provide a broad profile description of gene expression in cell samples. The markers relevant for the early phases of hESC differentiation (specifically ectoderm, mesoderm, definitive endoderm and extra-embryonic endoderm) and for which validated primer sets are available are provided below in Table 1. […] This is an important fact since the hESCs were often grown on mouse feeder layers. Most typically, triplicate samples were taken for each condition and independently analyzed in duplicate to assess the biological variability associated with each quantitative determination.
To generate PCR template, total RNA was isolated using RNeasy (Qiagen) and quantitated using RiboGreen (Molecular Probes). Reverse transcription from 350-500 ng of total RNA was carried out using the iScript reverse transcriptase kit (BioRad), which contains a mix of oligo-dT and random primers. Each 20 μL reaction was subsequently diluted up to 100 μL total volume and 3 μL was used in each 10 μL Q-PCR reaction containing 400 nM forward and reverse primers and 5 μL 2×SYBR Green master mix (Qiagen). Two step cycling parameters were used employing a 5 second denature at 85-94° C. (specifically selected according to the melting temp of the amplicon for each primer set) followed by a 45 second anneal/extend at 60° C. Fluorescence data was collected during the last 15 seconds of each extension phase. A three point, 10-fold dilution series was used to generate the standard curve for each run and cycle thresholds (Ct's) were converted to quantitative values based on this standard curve. The quantitated values for each sample were normalized to housekeeping gene performance and then average and standard deviations were calculated for triplicate samples. At the conclusion of PCR cycling, a melt curve analysis was performed to ascertain the specificity of the reaction. A single specific product was indicated by a single peak at the Tm appropriate for that PCR amplicon. […]

[5] = fold difference in gene chip signal (Affymetrix U133 Plus 2.0) for each gene in CXCR4-purified definitive endoderm (5 days, 100 ng/mL activin A) compared to SSEA4-purified hESCs
[6] = fold difference in signal for each gene in definitive endoderm (CXCR4-purified, 5 days 100 ng/mL activin A) compared to hESCs (SSEA4-purified), Affymetrix U133 Plus 2.0

With APOA1 the “Raw Fold Change” value [1, 5] was 15.05 fold.

For BMP2, the “Raw Fold Change” value [1, 5] was 7.76 fold.

With “FGF2: growth factor; candidate differentiation factor” the “expression of the TITF1 marker gene as compared to definitive endoderm cells on day 4” value ([2]; 100 ng/ml FGF2, days 7, 9 and 10, FIG. 36C) was “substantially increased”, the “expression of the TITF1 gene product as compared to untreated definitive endoderm” value ([2]; FGF2 at 5 ng/ml, FIG. 36C) was “very little effect” and the “expression of the albumin gene product as compared to definitive endoderm cells on day 4” value ([2]; FGF2 at 5 ng/ml, days 9 and 10, FIG. 36A) was “substantially increased”. For the same molecule, the “expression of the albumin gene product as compared to definitive endoderm cells on day 4” value ([2]; FGF2 at 100 ng/ml, days 9 and 10, FIG. 36A) was “not increased”.

In the case of NODAL, the “Raw Fold Change” value [1, 6] is reported as 7.89 fold.

For NPPB, the “Raw Fold Change” value [1, 6] was 35.43 fold.

For activin, the “time definitive endoderm cells maintained and expanded in culture without appreciable differentiation” value [3] was “greater than 50 days”.

B1: Wnt3A: Wnt family growth factor; candidate differentiation factor (protein, UniProt P56704 19-352, looked up)
Protein Wnt-3a: SYPIWWSLAVGPQYSSLGSQPILCASIPGLVPKQLRFCRNYVEIMPSVAEGIKIGIQECQHQFRGRRWNCTTVHDSLAIFGPVLDKATRESAFVHAIASAGVAFAVTRSCAEGTAAICGCSSRHQGSPGKGWKWGGCSEDIEFGGMVSREFADARENRPDARSAMNRHNNEAGRQAIASHMHLKCKCHGLSGSCEVKTCWWSQPDFRAIGDFLKDKYDSASEMVVEKHRESRGWVETLRPRYTYFKVPTERDLVYYEASPNFCEPNPETGSFGTRDRTCNVSSHGIDGCDLLCCGRGHNARAERRREKCRCVFHWCCYVSCQECTRVYDVHTCK
In the case of B1, the “SOX17 gene expression over that of activins alone” value [4] is reported as “increases” and the “expression of the albumin gene product as compared to untreated definitive endoderm cells” value ([2]; 20 ng/ml Wnt3A, days 9 and 10, FIG. 36A) is reported as “increased”.
